In patent US7642229B2, “Pharmaceutical composition and a product which includes a substituted acryloyl distamycin derivative, an antimicrotubule agent and/or an antimetabolite” (Nerviano Medical Sciences S.r.l., priority 2000, dated 2010):

Test system: disseminated L1210 murine leukemia
Conditions: for Tox (number of toxic deaths/number of mice) / ILS % (increase in life span: [(median survival time of treated mice/median survival time of controls) × 100] − 100): L1210 cells 10^5/mouse iv on day 0, PNU 166196 iv + 1.6, 0.78 mg/kg/day; for Tox (number of toxic deaths/number of mice): gemcitabine iv + 1, 15 mg/kg/day; for ILS % (increase in life span: [(median survival time of treated mice/median survival time of controls) × 100] − 100): gemcitabine iv + 1, 15 mg/kg/day (2 h after PNU 166196 administration); for ILS % values: text: gemcitabine 15 mg/kg day +1 after tumor injection, PNU 166196 0.7 mg/kg days +1,6, combination at the same doses and schedule

Row | Compound | Tox (number of toxic deaths/number of mice) | ILS % (increase in life span: [(median survival time of treated mice/median survival time of controls) × 100] − 100) | ILS % values | toxicity (text: gemcitabine alone 15 mg/kg day +1, PNU 166196 alone 0.7 mg/kg days +1,6)
1 | Nc1ccn([C@@H]2O[C@H](CO)[C@@H](O)C2(F)F)c(=O)n1 [Gemcitabine, gemcitabine, reference compound] | 0/10 | 50% | 50% | –
2 | C=C(Br)C(=O)Nc1cc(C(=O)Nc2cc(C(=O)Nc3cc(C(=O)Nc4cc(C(=O)NCCNC(=N)N)n(C)c4)n(C)c3)n(C)c2)n(C)c1.Cl [PNU 166196, N-(5-{[(5-{[(5-{[(2-{[amino(imino)methyl]amino}ethyl)amino]carbonyl}-1-methyl-1H-pyrrol-3-yl)amino]carbonyl}-1-methyl-1H-pyrrol-3-yl)amino]carbonyl}-1-methyl-1H-pyrrol-3-yl)-4-[(2-bromoacryloyl)amino]-1-methyl-1H-pyrrole-2-carboxamide hydrochloride] | 0/10 | 58% | 58% | without toxicity
